The text below walks through data of patent publication US10045983B2, “Heteroaryl pyridone and aza-pyrodine compounds” (Genentech, Inc., priority 2011, dated 2018).

Each structure is given as a SMILES string.

The nature of the first test: CD69 Whole Blood Assay (CD69 Hu Blood FACS). The test is classed as cell-based, human. The following applies: Lymphocyte; human whole blood, anti-IgM activated B lymphocytes, FACS; IC70; Table 1; read-out: CD69 Hu Blood FACS IC70. In outline:
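Human whole blood stimulated by crosslinking surface IgM with goat F(ab′)2 anti-human IgM; inhibition of CD69 expression on B lymphocytes measured by flow cytometry.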
The IC70 is the concentration needed for an effect of 70%. Turning to `Cn1cc(-c2ccnc(-n3ncc4c5c(sc4c3=O)CCCC5)c2CO)cc(Nc2ccncn2)c1=O` [Example 182, 3-[3′-Hydroxymethyl-1-methyl-6-oxo-5-(pyrimidin-4-ylamino)-1,6-dihydro-[3,4′]bipyridinyl-2′-yl]-6,7,8,9-tetrahydro-3H-benzo[4,5]thieno[2,3-d]pyridazin-4-one], the IC70 came to 813 nM.
`Cn1cc(-c2ccnc(N3CCn4c5c(c(F)c4C3=O)CCCC5)c2CO)cc(Nc2ccccn2)c1=O` [Example 183, 10-fluoro-2-(3-(hydroxymethyl)-4-(1-methyl-6-oxo-5-(pyridin-2-ylamino)-1,6-dihydropyridin-3-yl)pyridin-2-yl)-3,4,6,7,8,9-hexahydropyrazino[1,2-a]indol-1(2H)-one]: the IC70 was 906 nM.
In the case of `Cn1cc(-c2ccnc(N3CCc4c(sc5c4CC(C)(C)C5)C3=O)c2CO)cc(Nc2cnccn2)c1=O` [Example 184, 6-[3′-Hydroxymethyl-1-methyl-6-oxo-5-(pyrazin-2-ylamino)-1,6-dihydro-[3,4′]bipyridinyl-2′-yl]-2,2-dimethyl-2,3,5,6-tetrahydro-1H,4H-8-thia-6-aza-cyclopenta[a]inden-7-one], the IC70 turned out to be 601 nM.
Regarding `Cn1cc(-c2ccnc(N3CCn4c(cc5c4CC(C)(C)C5)C3=O)c2CO)nc(Nc2ccn3ccnc3c2)c1=O` [Example 185, 2-{3-Hydroxymethyl-4-[6-(imidazo[1,2-a]pyridin-7-ylamino)-4-methyl-5-oxo-4,5-dihydro-pyrazin-2-yl]-pyridin-2-yl}-7,7-dimethyl-3,4,7,8-tetrahydro-2H,6H-cyclopenta[4,5]pyrrolo[1,2-a]pyrazin-1-one], the IC70 came out at 1300 nM.
For `Cn1cc(-c2ccnc(N3CCn4c5c(c(F)c4C3=O)CCCC5)c2CO)nc(Nc2cccnc2)c1=O` [Example 186, 10-fluoro-2-(3-(hydroxymethyl)-4-(4-methyl-5-oxo-6-(pyridin-3-ylamino)-4,5-dihydropyrazin-2-yl)pyridin-2-yl)-3,4,6,7,8,9-hexahydropyrazino[1,2-a]indol-1(2H)-one], the IC70 came to 1600 nM.
As to `Cn1cc(-c2ccnc(N3CCn4c(cc5c4CCCC5)C3=O)c2CO)cc(Nc2ccc(N3CCN(C4COC4)CC3(C)C)cn2)c1=O` [Example 187, 2-(4-(5-(5-(2,2-dimethyl-4-(oxetan-3-yl)piperazin-1-yl)pyridin-2-ylamino)-1-methyl-6-oxo-1,6-dihydropyridin-3-yl)-3-(hydroxymethyl)pyridin-2-yl)-3,4,6,7,8,9-hexahydropyrazino[1,2-a]indol-1(2H)-one], the IC70 came out at 45.1 nM.
On the same count and under the same terms, next, `Cn1cc(-c2ccnc(N3CCn4c(cc5c4CC(C)(C)C5)C3=O)c2CO)cc(Nc2cnccn2)c1=O` [Example 188, 2-[3′-Hydroxymethyl-1-methyl-6-oxo-5-(pyrazin-2-ylamino)-1,6-dihydro-[3,4′]bipyridinyl-2′-yl]-7,7-dimethyl-3,4,7,8-tetrahydro-2H,6H-cyclopenta[4,5]pyrrolo[1,2-a]pyrazin-1-one]: 601 nM; `Cn1cc(-c2ccnc(N3CCn4c(cc5c4CCCC5)C3=O)c2CO)cc(Nc2cnc(N3CCN(C4COC4)CC3)cn2)c1=O` [Example 189, 2-(3-(hydroxymethyl)-4-(1-methyl-5-(5-(4-(oxetan-3-yl)piperazin-1-yl)pyrazin-2-ylamino)-6-oxo-1,6-dihydropyridin-3-yl)pyridin-2-yl)-3,4,6,7,8,9-hexahydropyrazino[1,2-a]indol-1(2H)-one]: 652 nM.

Still in this test, the particulars now being: Lymphocyte; human whole blood, anti-IgM activated B lymphocytes, FACS; IC70; Table 2 (unit inferred); read-out: CD69 Hu Blood FACS (IC70).
`Cn1cc(-c2ccnc(N3CCn4c(cc5c4CCCC5)C3=O)c2CO)cc(Nc2ccc(N3CCN(C4COC4)CC3(C)C)cn2)c1=O` [Example 190, 2-[4-[5-[[5-[2,2-dimethyl-4-(oxetan-3-yl)piperazin-1-yl]-2-pyridyl]amino]-1-methyl-6-oxo-3-pyridyl]-3-(hydroxymethyl)-2-pyridyl]-3,4,6,7,8,9-hexahydropyrazino[1,2-a]indol-1-one]: the 70% effect concentration (IC70) was 70.4 nM.
